Measured values from ChEMBL document CHEMBL1201862, “PubChem BioAssay data set” (2004).
Calls of active or inactive are those of the source.

Experiments:
[1] = target: X-box-binding protein 1 (Homo sapiens, UniProt P17861); assay type: functional, Cricetulus griseus;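 further: confirmatory dose-response counter-screen serving a CHOP assay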
[2] = target: Acyl-homoserine lactone acylase PvdQ (Pseudomonas aeruginosa (strain LESB58), UniProt Q9I194); assay: PvdQ acylase enzyme activity blockers – biochemical, fluorescence, plate reader and imaging, cherry-picks, dose response (AID 493231)
[3] = target: Tumor necrosis factor (Homo sapiens, UniProt P01375); assay: analog potency on TNFa NF-kB signaling – cell-based, revised, SAR follow-up (AID 2337); assay type: functional
[4] = target: T1, Estrogen receptor (Homo sapiens, UniProt P03372); assay: ERα coactivator recruitment enhancers – biochemical, TR-FRET, ERα LBD, dose response (AID 737)
T1 sequence (P03372 whole entry): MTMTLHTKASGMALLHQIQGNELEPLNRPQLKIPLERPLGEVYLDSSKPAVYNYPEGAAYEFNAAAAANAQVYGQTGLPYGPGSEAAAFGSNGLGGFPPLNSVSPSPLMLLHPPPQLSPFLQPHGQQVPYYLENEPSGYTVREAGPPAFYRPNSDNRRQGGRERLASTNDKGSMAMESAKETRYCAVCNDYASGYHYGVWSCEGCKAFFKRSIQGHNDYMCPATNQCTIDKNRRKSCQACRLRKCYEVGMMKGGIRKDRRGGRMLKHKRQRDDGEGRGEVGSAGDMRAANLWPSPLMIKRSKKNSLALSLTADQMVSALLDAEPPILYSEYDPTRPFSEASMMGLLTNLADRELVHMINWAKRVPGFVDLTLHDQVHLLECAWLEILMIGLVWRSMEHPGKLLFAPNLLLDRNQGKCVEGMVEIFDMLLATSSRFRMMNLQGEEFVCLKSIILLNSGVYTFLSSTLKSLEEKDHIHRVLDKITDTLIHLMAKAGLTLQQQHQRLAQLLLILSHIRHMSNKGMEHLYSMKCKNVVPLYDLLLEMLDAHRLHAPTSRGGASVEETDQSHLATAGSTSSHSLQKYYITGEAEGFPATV

[5] = A Cell Based Secondary Assay To Explore Cytotoxicity of Compounds that Sensitize Mycobacterium Tuberculosis to Beta-Lactam Antibiotics.; assay type: functional
[6] = target: T2, Nucleotide-binding oligomerization domain-containing protein 1 (Homo sapiens, UniProt Q9Y239); assay: blockers of NOD1 pathway activity – revised, SAR follow-up (AID 2333); assay type: functional
T2 sequence (Q9Y239 whole entry): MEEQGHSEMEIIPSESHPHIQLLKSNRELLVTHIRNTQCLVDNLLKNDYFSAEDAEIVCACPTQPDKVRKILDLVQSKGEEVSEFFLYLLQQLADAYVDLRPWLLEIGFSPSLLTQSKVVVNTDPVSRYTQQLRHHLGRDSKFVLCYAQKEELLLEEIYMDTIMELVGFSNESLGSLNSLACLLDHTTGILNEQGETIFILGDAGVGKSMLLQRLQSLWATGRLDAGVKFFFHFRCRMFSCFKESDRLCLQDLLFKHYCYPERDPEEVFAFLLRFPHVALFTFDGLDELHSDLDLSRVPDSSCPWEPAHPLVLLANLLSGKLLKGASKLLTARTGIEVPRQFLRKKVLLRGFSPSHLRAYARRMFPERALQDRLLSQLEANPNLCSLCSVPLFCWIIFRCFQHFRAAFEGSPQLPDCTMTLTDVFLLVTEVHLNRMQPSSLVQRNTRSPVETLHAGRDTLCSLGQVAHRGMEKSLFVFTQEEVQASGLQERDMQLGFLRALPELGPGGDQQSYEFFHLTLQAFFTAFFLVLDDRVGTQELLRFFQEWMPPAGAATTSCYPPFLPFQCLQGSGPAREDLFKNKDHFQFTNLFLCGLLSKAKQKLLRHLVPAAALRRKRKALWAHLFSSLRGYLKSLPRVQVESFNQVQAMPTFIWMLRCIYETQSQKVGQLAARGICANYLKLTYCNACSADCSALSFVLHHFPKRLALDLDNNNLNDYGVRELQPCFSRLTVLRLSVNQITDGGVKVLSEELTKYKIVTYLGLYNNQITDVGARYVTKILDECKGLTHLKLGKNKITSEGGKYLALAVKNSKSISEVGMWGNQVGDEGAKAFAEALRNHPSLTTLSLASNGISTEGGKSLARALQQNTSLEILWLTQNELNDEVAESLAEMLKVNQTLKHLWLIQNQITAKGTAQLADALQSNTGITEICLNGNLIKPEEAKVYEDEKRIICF

[7] = test system: HEK293; assay: cells; conditions: Homo sapiens
[8] = target: Nucleotide-binding oligomerization domain-containing protein 2 (Homo sapiens, UniProt Q9HC29); assay: PubChem AID 2334; assay type: functional
[9] = target: Scavenger receptor class B member 1 (Mus musculus, UniProt Q61009); assay: mouse SR-BI DiI-HDL uptake blockers – ldlA[mSR-BI] cells, fluorescence, cherry pick, dose response (AID 493194); assay type: functional, cell-based;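 further: cellular uptake of fluorescent DiI-labeled HDL measured as cell fluorescence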
[10] = target: T1, Estrogen receptor
[11] = target: Luciferin 4-monooxygenase (Photinus pyralis, UniProt P08659); assay: In vitro luciferase assay using purified luciferase. [Related pubchem assays: 1299, 1270, 1295, 1375, 1287, 1281, 1293, 1291, 1289, 1280, 465, 1364, 1282, 1372, 1365, 1370, 1367, 1366, 1266, 1373, 1292, 1290, 1302, 1371, 1283, 1271, 1294, 1374, 1368, 1369 ]
[12] = HEK-293T viability loss after treatment – luminescence, T-cell screen hits, cytotoxicity control for TCR NF-kB inhibitor project, dose response (AID 489026); assay type: functional, cell-based;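 further: cells exposed to compound about 14 hours before the viability readout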
[13] = Luminescence Cell-Based Dose Response HTS to Identify Inhibitors of 5'UTR Stem-Loop Driven Prion Protein mRNA Translation in H4 Neuroglioblastoma Cells. [Related pubchem assays: 1827 (Project Summary), 1813 (Primary HTS)]; assay type: functional
[14] = target: T3, Microphthalmia-associated transcription factor (Homo sapiens, UniProt O75030); assay: reducers of TRPM1 reporter luminescence, concentration series – cell-based, SK-MEL-5, cherry-picked, set 3, MITF inhibitor project, dose response (AID 493073); assay type: functional;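 further: SK-MEL-5 melanoma cells with luciferase driven by the MITF target TRPM1 promoter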
T3 sequence (O75030 whole entry): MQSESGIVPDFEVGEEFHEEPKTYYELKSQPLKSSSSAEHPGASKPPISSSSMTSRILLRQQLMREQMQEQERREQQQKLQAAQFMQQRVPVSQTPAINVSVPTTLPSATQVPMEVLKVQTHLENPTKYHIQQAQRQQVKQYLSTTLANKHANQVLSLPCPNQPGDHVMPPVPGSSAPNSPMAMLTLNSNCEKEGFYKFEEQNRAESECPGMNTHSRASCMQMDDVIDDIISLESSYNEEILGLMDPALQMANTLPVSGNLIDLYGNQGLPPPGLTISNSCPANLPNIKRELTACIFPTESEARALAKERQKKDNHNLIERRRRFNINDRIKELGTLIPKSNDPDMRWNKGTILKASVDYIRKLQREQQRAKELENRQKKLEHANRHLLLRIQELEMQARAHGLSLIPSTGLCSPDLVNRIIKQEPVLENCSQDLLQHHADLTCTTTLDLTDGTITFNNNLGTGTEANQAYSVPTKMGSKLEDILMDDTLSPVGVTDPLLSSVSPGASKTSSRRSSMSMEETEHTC

[15] = test system: HEK293; assay: PMA/Ionomycin induced NF-kB luciferase assay in 293- NF-kB-Luc stable cells. [Related pubchem assays: 1299, 1270, 1295, 1375, 1287, 1281, 1293, 1291, 1289, 1280, 465, 1364, 1282, 1372, 1365, 1370, 1367, 1366, 1269, 1373, 1292, 1290, 1302, 1371, 1283, 1271, 1294, 1374, 1368, 1369 ]; assay type: functional, cell-based; conditions: Homo sapiens
[16] = luciferase reporter signal suppression in cells – H4 neuroglioma cells, luminescence, dose response (AID 1990); assay type: functional, cell-based
[17] = test system: HEK293; assay: Cytotoxicity assay in HEK293 cells. [Related pubchem assays (depositor defined):AID1266, AID1269, AID1270, AID1271, AID1280, AID1281, AID1282, AID1283, AID1287, AID1289, AID1290, AID1291, AID1292, AID1293, AID1294, AID1295, AID1299, AID1302, AID1364, AID1365, AID1366, AID1367, AID1369, AID1370, AID1371, AID1372, AID1373, AID1374, AID1375, AID1384 …; assay type: functional, cell-based; conditions: Homo sapiens
[18] = target: T4, Heat shock factor protein 1 (Mus musculus, UniProt P38532); assay: decrease of HSF1-responsive luciferase luminescence – cell-based, NIH3T3, dose retest, confirmation (AID 2382); assay type: functional;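 further: NIH3T3 fibroblasts with HSF1-driven luciferase reporter stressed by proteasome inhibitor MG132; luminescence from HSF1-driven luciferase expression after 8 hours of MG132 stress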
T4 sequence (P38532 whole entry): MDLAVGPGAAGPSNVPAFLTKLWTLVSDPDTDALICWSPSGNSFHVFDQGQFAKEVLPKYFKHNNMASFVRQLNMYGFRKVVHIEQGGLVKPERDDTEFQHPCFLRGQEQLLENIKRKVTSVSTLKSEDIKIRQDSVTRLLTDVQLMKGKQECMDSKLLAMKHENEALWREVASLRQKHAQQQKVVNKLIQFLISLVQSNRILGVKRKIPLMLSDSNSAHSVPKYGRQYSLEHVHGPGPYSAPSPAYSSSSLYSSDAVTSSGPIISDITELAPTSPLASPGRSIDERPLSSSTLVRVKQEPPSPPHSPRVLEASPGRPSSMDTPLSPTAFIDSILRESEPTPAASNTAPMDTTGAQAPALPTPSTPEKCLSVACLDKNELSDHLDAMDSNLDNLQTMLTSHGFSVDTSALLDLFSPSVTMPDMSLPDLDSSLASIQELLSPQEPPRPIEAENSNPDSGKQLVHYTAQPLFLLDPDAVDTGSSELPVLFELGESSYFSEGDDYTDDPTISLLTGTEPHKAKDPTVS

[19] = Luminescence-based counterscreen assay for KLF5 inhibitors: dose response cell-based high throughput screening assay to identify cytotoxic compounds using the IEC-6 intestinal epithelial cell line. [Related pubchem assays: 1700 (Primary screen.), 1834 (Confirmation screen.), 1858 (Summary AID.), 1905 (Counterscreen.)]; assay type: functional
[20] = target: Voltage-gated N-type calcium channel alpha-1B subunit/Amyloid beta A4 precursor protein-binding family A member 1 (Homo sapiens, UniProt Q00975+Q02410); assay: disruptors of Mint-PDZ/N-type channel peptide interaction – biochemical, HTRF, set 2, SAR follow-up (AID 434980); assay type: functional
[21] = target: Collagenase 3 (Homo sapiens, UniProt P45452); assay: potency against MMP13, MMP2, MMP3, MMP14 – biochemical, probe development, late stage results, selectivity assay for MMP13 inhibitor project, late-stage follow-up, panel member MMP-13 [IC50 Assay] (AID 2067)
[22] = target: Neutrophil collagenase (Homo sapiens, UniProt P22894); assay: potency against MMP13, MMP2, MMP3, MMP14 – biochemical, probe development, late stage results, selectivity assay for MMP13 inhibitor project, late-stage follow-up, panel member MMP-8 [IC50 Assay] (AID 2067)

Chain of Voltage-gated N-type calcium channel alpha-1B subunit/Amyloid beta A4 precursor protein-binding family A member 1 (Q00975 whole entry): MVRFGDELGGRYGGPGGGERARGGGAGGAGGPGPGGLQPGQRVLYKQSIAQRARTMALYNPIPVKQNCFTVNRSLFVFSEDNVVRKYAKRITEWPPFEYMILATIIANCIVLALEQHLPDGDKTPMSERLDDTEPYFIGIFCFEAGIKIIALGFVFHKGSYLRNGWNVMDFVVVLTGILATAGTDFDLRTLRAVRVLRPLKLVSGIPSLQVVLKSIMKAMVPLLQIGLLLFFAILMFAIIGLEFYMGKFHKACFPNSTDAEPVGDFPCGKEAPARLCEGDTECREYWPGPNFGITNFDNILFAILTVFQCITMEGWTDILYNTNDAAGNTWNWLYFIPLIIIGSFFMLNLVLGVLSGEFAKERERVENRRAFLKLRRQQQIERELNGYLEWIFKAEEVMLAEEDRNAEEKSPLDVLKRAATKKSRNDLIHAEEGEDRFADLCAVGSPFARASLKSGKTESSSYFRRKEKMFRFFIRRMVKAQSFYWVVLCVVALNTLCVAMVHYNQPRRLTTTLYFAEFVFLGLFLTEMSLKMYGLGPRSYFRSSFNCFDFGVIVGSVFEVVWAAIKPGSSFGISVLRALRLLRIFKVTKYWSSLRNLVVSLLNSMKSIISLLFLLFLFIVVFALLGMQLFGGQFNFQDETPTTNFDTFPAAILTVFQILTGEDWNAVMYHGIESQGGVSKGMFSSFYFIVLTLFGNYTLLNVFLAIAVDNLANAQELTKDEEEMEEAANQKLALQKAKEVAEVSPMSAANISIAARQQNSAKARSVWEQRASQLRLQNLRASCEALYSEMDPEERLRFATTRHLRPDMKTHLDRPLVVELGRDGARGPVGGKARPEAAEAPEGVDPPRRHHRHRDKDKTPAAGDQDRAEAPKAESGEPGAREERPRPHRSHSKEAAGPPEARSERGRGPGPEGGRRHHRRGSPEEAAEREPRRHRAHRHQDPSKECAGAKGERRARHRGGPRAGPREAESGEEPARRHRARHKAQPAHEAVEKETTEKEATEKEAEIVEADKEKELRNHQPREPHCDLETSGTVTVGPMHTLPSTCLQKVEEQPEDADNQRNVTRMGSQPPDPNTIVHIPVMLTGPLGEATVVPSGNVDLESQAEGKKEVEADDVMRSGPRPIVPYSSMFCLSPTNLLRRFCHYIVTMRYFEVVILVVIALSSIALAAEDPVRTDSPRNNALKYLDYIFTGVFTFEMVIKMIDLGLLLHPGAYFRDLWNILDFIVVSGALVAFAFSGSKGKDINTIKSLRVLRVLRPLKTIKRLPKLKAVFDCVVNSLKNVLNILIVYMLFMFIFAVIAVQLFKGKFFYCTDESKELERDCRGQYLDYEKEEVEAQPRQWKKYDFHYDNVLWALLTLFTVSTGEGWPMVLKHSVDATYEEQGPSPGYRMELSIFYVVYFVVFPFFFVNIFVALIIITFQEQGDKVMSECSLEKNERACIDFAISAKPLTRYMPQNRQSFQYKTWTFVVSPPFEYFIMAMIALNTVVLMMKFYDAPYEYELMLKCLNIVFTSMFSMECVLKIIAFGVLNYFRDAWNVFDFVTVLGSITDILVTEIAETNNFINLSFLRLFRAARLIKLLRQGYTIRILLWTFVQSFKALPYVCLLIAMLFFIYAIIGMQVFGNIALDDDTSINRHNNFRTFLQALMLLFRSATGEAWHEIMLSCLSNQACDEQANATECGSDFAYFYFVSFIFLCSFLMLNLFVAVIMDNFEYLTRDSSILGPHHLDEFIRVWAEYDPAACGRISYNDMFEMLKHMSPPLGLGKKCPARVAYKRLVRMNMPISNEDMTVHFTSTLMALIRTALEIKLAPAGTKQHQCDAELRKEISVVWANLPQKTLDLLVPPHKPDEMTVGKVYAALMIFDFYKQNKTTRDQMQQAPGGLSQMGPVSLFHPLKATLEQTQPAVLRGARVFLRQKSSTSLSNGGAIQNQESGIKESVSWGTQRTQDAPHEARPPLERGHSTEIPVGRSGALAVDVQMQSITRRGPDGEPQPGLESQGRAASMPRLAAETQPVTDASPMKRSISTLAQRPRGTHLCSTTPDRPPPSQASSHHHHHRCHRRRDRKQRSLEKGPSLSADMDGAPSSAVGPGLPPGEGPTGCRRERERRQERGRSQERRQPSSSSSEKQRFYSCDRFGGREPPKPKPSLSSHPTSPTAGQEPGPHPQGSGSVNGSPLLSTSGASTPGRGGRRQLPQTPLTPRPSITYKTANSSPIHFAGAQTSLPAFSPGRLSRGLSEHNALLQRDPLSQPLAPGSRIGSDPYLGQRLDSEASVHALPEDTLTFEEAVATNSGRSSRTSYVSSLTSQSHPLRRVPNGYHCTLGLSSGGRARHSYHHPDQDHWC
Chain of Voltage-gated N-type calcium channel alpha-1B subunit/Amyloid beta A4 precursor protein-binding family A member 1 (Q02410 whole entry): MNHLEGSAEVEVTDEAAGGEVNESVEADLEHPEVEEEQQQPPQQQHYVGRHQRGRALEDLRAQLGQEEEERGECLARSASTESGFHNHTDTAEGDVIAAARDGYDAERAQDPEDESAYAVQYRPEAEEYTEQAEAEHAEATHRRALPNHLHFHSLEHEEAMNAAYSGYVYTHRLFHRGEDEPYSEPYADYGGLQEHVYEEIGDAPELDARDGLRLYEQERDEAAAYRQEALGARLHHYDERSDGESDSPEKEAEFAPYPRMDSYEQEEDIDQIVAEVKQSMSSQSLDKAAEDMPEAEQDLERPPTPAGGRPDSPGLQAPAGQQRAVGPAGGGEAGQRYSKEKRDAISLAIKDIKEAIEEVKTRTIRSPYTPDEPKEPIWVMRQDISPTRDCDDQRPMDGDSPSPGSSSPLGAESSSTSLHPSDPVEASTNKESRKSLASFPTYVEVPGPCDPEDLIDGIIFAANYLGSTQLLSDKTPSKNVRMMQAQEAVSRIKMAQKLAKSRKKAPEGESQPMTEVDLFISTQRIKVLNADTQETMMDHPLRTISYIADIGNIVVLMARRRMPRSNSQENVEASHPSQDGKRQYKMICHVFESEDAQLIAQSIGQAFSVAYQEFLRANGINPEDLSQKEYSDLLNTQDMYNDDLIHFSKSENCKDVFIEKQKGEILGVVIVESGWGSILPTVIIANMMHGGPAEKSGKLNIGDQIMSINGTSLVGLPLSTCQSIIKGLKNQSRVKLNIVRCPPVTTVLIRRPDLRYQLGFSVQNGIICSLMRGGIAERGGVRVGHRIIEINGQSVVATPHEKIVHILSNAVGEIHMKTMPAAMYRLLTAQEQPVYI
Chain of Nucleotide-binding oligomerization domain-containing protein 2 (Q9HC29 whole entry, the tested form may be a part): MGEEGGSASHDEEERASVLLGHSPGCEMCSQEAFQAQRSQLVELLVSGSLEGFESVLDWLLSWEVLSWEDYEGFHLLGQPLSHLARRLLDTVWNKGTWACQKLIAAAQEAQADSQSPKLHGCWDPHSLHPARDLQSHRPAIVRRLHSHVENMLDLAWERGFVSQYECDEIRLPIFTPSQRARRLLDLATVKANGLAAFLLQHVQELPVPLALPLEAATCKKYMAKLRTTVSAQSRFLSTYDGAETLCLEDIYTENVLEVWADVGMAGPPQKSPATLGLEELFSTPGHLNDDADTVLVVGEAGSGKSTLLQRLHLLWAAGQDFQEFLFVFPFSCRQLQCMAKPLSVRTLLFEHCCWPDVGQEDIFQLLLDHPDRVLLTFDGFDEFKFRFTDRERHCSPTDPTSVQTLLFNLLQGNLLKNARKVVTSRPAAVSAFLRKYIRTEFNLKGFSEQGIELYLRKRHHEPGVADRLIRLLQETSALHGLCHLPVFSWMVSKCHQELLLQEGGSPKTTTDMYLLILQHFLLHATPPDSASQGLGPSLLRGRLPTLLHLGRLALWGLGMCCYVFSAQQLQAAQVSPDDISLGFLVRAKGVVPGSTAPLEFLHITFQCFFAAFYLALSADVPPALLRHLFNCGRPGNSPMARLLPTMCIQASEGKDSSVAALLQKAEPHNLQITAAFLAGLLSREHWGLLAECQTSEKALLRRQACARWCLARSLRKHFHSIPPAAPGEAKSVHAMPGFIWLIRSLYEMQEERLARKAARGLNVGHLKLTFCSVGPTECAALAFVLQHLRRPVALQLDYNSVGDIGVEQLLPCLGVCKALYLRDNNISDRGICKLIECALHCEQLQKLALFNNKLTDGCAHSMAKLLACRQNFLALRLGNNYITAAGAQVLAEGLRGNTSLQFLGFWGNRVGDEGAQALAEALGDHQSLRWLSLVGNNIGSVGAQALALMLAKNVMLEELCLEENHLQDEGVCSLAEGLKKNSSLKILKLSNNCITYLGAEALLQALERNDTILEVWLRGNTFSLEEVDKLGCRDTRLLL
Chain of Acyl-homoserine lactone acylase PvdQ (Q9I194 24-193 limits assumed): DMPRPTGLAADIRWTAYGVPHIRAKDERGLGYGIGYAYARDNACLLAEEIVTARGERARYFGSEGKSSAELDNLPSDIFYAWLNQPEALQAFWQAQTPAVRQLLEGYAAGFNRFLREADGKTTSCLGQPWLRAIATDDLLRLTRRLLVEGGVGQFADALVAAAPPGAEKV
Chain of Acyl-homoserine lactone acylase PvdQ (Q9I194 217-762 limits assumed): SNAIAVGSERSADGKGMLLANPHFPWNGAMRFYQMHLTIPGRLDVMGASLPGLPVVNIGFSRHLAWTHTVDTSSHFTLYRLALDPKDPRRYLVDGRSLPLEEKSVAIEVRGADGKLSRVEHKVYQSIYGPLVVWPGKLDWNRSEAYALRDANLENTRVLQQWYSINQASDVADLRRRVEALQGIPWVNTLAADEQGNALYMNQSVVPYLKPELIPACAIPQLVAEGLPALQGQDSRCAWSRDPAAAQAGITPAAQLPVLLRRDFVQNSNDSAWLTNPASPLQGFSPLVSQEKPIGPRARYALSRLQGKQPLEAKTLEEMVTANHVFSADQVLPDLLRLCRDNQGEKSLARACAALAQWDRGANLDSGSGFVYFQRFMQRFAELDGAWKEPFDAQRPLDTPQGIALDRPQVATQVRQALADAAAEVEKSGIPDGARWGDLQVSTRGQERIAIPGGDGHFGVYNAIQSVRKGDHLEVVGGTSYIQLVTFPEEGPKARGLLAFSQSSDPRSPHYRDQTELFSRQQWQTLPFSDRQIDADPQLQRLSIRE

## CCC(C)(C)NC(=O)C(c1cccn1C)N(C(=O)Cn1nnc2ccccc21)c1ccc(F)cc1 (configuration not stated)
[1]
  Absolute IC50 (XBP1): 10 µM

## Cc1ccc([S+]([O-])c2ccc(C)cc2)cc1
[2]
  AC50: 2.65 µM (active)

## Cc1ccc(Cn2c(NC(=O)c3ccco3)nc3ccccc32)cc1
[3]
  IC50: > 20 µM (inactive)
[4]
  EC50: 14.6 µM (active)
[5]
  CC50: 10.1 µM (active)
[6]
  IC50: > 20 µM (inactive)
[7]
  IC50: > 20 µM (inactive)
[8]
  IC50: > 20 µM (inactive)

## CCOC(=O)c1c(Nc2nc(C)c(C(=O)NC)s2)sc(C)c1C
[9]
  AC50: 11.6 µM (active)
[10]
  IC50: 42.3 µM (not active)

## COC(=O)C1=C(CN2CCCc3ccccc32)NC(=O)NC1c1ccc(F)cc1 (configuration not stated)
[11]
  EC50: > 8 µM (not active)
[12]
  IC50: > 80 µM (inactive)
[13]
  EC50: 12.4 µM (active)
[14]
  AC50: 2.16 µM (active)
[15]
  EC50: 9.82 µM (not active)
[16]
  EC50: 6.69 µM (inconclusive)
[17]
  EC50: > 8 µM (inactive)
[18]
  EC50: 8.88 µM (active)
[19]
  IC50: > 39.8 µM (not active)

## CN(CCc1ccccc1)C(=O)c1cc(-c2ccco2)nc2ccccc12
[20]
  IC50: > 56.8 µM (inactive)

## O=C(O)c1ccc(CSc2nc3c(c(=O)[nH]2)CCC3)cc1
[21]
  IC50: > 39.8 µM (inactive)
[22]
  IC50: > 39.8 µM (inactive)
